Toxic doses and inconclusive results are not listed.

The subject of the assay is L1210 leukemia ip in BDF1 mice, survival T/C. Briefly: NCI In Vivo Anticancer Drug Screen. Data for tumor model L1210 Leukemia (intraperitoneal) in B6D2F1 (BDF1) mice. The following applies: endpoint: mean survival time, higher = longer survival. The method in brief: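 Mice bearing the transplanted tumor received compound or vehicle. Survival of the treated group was divided by that of the vehicle-treated control group to give the ratio.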

Setting [1] is: dose: 50.0 mg/kg/injection, schedule: Q01DX009 (ip), vehicle: saline with Tween-80.
The mark [2] stands for this setting: dose: 100.0 mg/kg/injection, schedule: Q04DX002 (ip), vehicle: Klucel (hydroxypropylcellulose) (HPC).
Setting [3] is: dose: 200.0 mg/kg/injection, schedule: Q04DX002 (ip), vehicle: Klucel (hydroxypropylcellulose) (HPC).
Setting [4] is: dose: 400.0 mg/kg/injection, schedule: Q04DX002 (ip), vehicle: Klucel (hydroxypropylcellulose) (HPC).
Setting [5] is: dose: 100.0 mg/kg/injection, schedule: Q04DX003 (ip), vehicle: saline with Tween-80.
Where [6] appears, read: dose: 200.0 mg/kg/injection, schedule: Q04DX003 (ip), vehicle: saline with Tween-80.
The mark [7] stands for this setting: dose: 400.0 mg/kg/injection, schedule: Q04DX003 (ip), vehicle: saline with Tween-80.
Setting [8] is: dose: 100.0 mg/kg/injection, schedule: Q01DX009 (ip), vehicle: saline with Tween-80.
[9] abbreviates: dose: 200.0 mg/kg/injection, schedule: Q01DX009 (ip), vehicle: saline with Tween-80.
The mark [10] stands for this setting: dose: 100.0 mg/kg/injection, schedule: Q01DX009 (ip), vehicle: saline.
[11] abbreviates: dose: 200.0 mg/kg/injection, schedule: Q01DX009 (ip), vehicle: Klucel (hydroxypropylcellulose) (HPC).
Where [12] appears, read: dose: 100.0 mg/kg/injection, schedule: Q04DX002 (ip), vehicle: saline.
Setting [13] is: dose: 200.0 mg/kg/injection, schedule: Q04DX002 (ip), vehicle: saline.
The mark [14] stands for this setting: dose: 100.0 mg/kg/injection, schedule: Q01DX001 (ip), vehicle: saline.
The mark [15] stands for this setting: dose: 200.0 mg/kg/injection, schedule: Q01DX001 (ip), vehicle: saline.
[16] abbreviates: dose: 400.0 mg/kg/injection, schedule: Q01DX001 (ip), vehicle: saline.

For the molecule `CCC(=O)c1ccc2c(c1)N(CCCN(C)C)c1ccccc1S2`, the T/C was 98 % of control (dose: 6.25 mg/kg/injection, schedule: Q01DX009 (ip), vehicle: saline with Tween-80); 96 % of control (dose: 12.5 mg/kg/injection, schedule: Q01DX009 (ip), vehicle: saline with Tween-80); 115 % of control (dose: 25.0 mg/kg/injection, schedule: Q01DX009 (ip), vehicle: saline with Tween-80); 107 % of control under setting [1].

As for `Nc1ccc(C(=O)N/N=C\c2cccc3ccccc23)cc1`, the T/C is 97 % of control under setting [2], 90 % of control under setting [3] and 93 % of control under setting [4].

As for `COC(=O)c1ccc(OCCOc2ccc(C(C)(C)CC(C)(C)C)cc2)c([N+](=O)[O-])c1`, the T/C is, setting by setting: under setting [5], 91 % of control; under setting [6], 93 % of control; under setting [7], 91 % of control.

For `Cc1ccc(NC(=O)OCCOc2ccc(Cl)cc2Cl)cc1[N+](=O)[O-]`, the T/C reads like this: under setting [1], 97 % of control; under setting [8], 104 % of control; under setting [9], 104 % of control.

For `CC12C(=O)N(C3CCC(=O)NC3=O)C(=O)C1C1CCC2C1` (stereo not given), the T/C under setting [5] is 96 % of control.

For `CNC(=O)Nc1ccccc1C(=O)NN`, the T/C reads like this: (dose: 100.0 mg/kg/injection, schedule: Q01DX009 (ip), vehicle: other) 100 % of control; (dose: 200.0 mg/kg/injection, schedule: Q01DX009 (ip), vehicle: other) 96 % of control.

Consider `O=C(N/N=C/c1cccc([N+](=O)[O-])c1)c1ccc(Cl)cc1`, for which the T/C is, setting by setting: under setting [1], 96 % of control; under setting [8], 89 % of control; under setting [9], 89 % of control.

Take `Cn1nnnc1N`: the T/C (dose: 100.0 mg/kg/injection, schedule: Q01DX009 (ip), vehicle: Klucel (hydroxypropylcellulose) (HPC)) is 96 % of control; the T/C under setting [10] was 98 % of control; the T/C (dose: 100.0 mg/kg/injection, schedule: Q04DX003 (ip), vehicle: saline) was 103 % of control; the T/C under setting [11] was 100 % of control; the T/C (dose: 200.0 mg/kg/injection, schedule: Q01DX009 (ip), vehicle: saline) was 96 % of control; the T/C (dose: 200.0 mg/kg/injection, schedule: Q04DX003 (ip), vehicle: saline) was 105 % of control. Further, the T/C is 95 % of control (dose: 400.0 mg/kg/injection, schedule: Q01DX009 (ip), vehicle: Klucel (hydroxypropylcellulose) (HPC)); 89 % of control (dose: 400.0 mg/kg/injection, schedule: Q01DX009 (ip), vehicle: saline); 100 % of control (dose: 400.0 mg/kg/injection, schedule: Q04DX003 (ip), vehicle: saline).

For `Cc1ccc(S(=O)(=O)O)cc1.[Ag]`, the T/C is 92 % of control (dose: 25.0 mg/kg/injection, schedule: Q04DX002 (ip), vehicle: saline + alcohol) and 96 % of control (dose: 50.0 mg/kg/injection, schedule: Q04DX002 (ip), vehicle: saline + alcohol).

As for `Cc1ncn(C)n1`, the T/C runs as follows: under setting [12], 94 % of control; under setting [13], 112 % of control; (dose: 400.0 mg/kg/injection, schedule: Q04DX002 (ip), vehicle: saline) 98 % of control.

For `Cn1c[n+](-c2ccccc2)c([S-])n1`, the T/C by setting is: under setting [14], 101 % of control; under setting [15], 101 % of control; under setting [16], 100 % of control.

Regarding `CC(=O)Nc1ccc(/C=C/c2cc[n+](C)cc2)cc1`, the T/C under setting [5] is 97 % of control, the T/C under setting [6] is 111 % of control and the T/C under setting [7] was 102 % of control.

Consider `Cn1nc(-c2ccccc2)[n+](C)n1`, for which the T/C reads like this: (dose: 75.0 mg/kg/injection, schedule: Q01DX001 (ip), vehicle: saline) 104 % of control; (dose: 150.0 mg/kg/injection, schedule: Q01DX001 (ip), vehicle: saline) 100 % of control; (dose: 300.0 mg/kg/injection, schedule: Q01DX001 (ip), vehicle: saline) 100 % of control.

Consider `NC(=O)c1[nH]cnc1/N=N/N(CCF)CCF`, for which the T/C runs as follows: (dose: 1.87 mg/kg/injection, schedule: Q01DX009 (ip), vehicle: other) 106 % of control; (dose: 3.75 mg/kg/injection, schedule: Q01DX009 (ip), vehicle: other) 123 % of control; (dose: 10.0 mg/kg/injection, schedule: Q01DX001 (ip), vehicle: other) 106 % of control; (dose: 15.0 mg/kg/injection, schedule: Q01DX009 (ip), vehicle: other) 153 % of control.

Consider `CN(C)C(=S)Nc1ccccc1`, for which the T/C is, setting by setting: under setting [10], 114 % of control; (dose: 130.0 mg/kg/injection, schedule: Q01DX009 (ip), vehicle: Klucel (hydroxypropylcellulose) (HPC)) 98 % of control; under setting [11], 103 % of control.

`CNC(Cl)(Cl)NC`: the T/C was 90 % of control (dose: 50.0 mg/kg/injection, schedule: Q01DX009 (ip), vehicle: saline); 87 % of control under setting [10]; 86 % of control under setting [12]; 88 % of control under setting [13].

With `Cc1c([N+](=O)[O-])ccc2ccccc12`, the T/C is, setting by setting: (dose: 100.0 mg/kg/injection, schedule: Q01DX001 (ip), vehicle: other) 103 % of control; (dose: 100.0 mg/kg/injection, schedule: Q04DX003 (ip), vehicle: Klucel (hydroxypropylcellulose) (HPC)) 108 % of control; (dose: 200.0 mg/kg/injection, schedule: Q01DX001 (ip), vehicle: other) 98 % of control; (dose: 200.0 mg/kg/injection, schedule: Q04DX003 (ip), vehicle: Klucel (hydroxypropylcellulose) (HPC)) 101 % of control; (dose: 400.0 mg/kg/injection, schedule: Q01DX001 (ip), vehicle: other) 103 % of control; (dose: 400.0 mg/kg/injection, schedule: Q04DX003 (ip), vehicle: Klucel (hydroxypropylcellulose) (HPC)) 100 % of control.

For the molecule `CCCCCCc1ccc2c(c1)CC(CCCC)C2` (stereo not given), the T/C by setting is: (dose: 50.0 mg/kg/injection, schedule: Q01DX001 (ip), vehicle: saline) 101 % of control; under setting [14], 104 % of control; under setting [15], 98 % of control; under setting [16], 101 % of control.

In the case of `O=[N+]([O-])c1ccc(OCc2cc(S(=O)(=O)F)ccc2Cl)c(Cl)c1`, the T/C was 100 % of control (dose: 75.0 mg/kg/injection, schedule: Q04DX003 (ip), vehicle: gum acacia); 96 % of control (dose: 150.0 mg/kg/injection, schedule: Q04DX003 (ip), vehicle: gum acacia); 91 % of control (dose: 300.0 mg/kg/injection, schedule: Q04DX003 (ip), vehicle: gum acacia).

On to `Cc1cc(Br)c[nH]c1=O`, for which the T/C was 98 % of control under setting [5], 98 % of control under setting [6] and 102 % of control under setting [7].

As for `CN1C(=O)N(C)C(=O)C(Cc2ccccc2)(Cc2ccccc2)C1=O`, the T/C is 109 % of control (dose: 10.0 mg/kg/injection, schedule: Q01DX001 (ip), vehicle: saline) and 105 % of control (dose: 20.0 mg/kg/injection, schedule: Q01DX001 (ip), vehicle: saline).

In the case of `CCCCOB1OC(c2ccccc2)(c2ccccc2)c2ccccc2C(c2ccccc2)(c2ccccc2)O1`, the T/C is 91 % of control (dose: 100.0 mg/kg/injection, schedule: Q01DX001 (ip), vehicle: carboxymethylcellulose (CMC)); 91 % of control (dose: 200.0 mg/kg/injection, schedule: Q01DX001 (ip), vehicle: carboxymethylcellulose (CMC)); 98 % of control (dose: 400.0 mg/kg/injection, schedule: Q01DX001 (ip), vehicle: carboxymethylcellulose (CMC)).

In the case of `C=CCc1ccc(OC(=O)Nc2ccccc2)c(OC)c1`, the T/C by setting is: under setting [2], 87 % of control; under setting [3], 87 % of control; under setting [4], 87 % of control.

Regarding `CCCCCCCCCCCCCCCCCC(=O)NCCS`, the T/C runs as follows: (dose: 25.0 mg/kg/injection, schedule: Q04DX002 (ip), vehicle: saline with Tween-80) 101 % of control; (dose: 50.0 mg/kg/injection, schedule: Q04DX002 (ip), vehicle: saline with Tween-80) 89 % of control; (dose: 100.0 mg/kg/injection, schedule: Q04DX002 (ip), vehicle: saline with Tween-80) 104 % of control.
